In US10336762B2 (priority 2017, dated 2019):
Read-outs that look alike come from different tables or passages of the source.

Key:
IRAK4 enzyme = IRAK4 enzyme (Homo sapiens (Human), UniProt Q9NWZ3); test: biochemical; type: biochemical; conditions: IRAK4 enzyme, 500 μM ATP
TNFα = test: cells; type: cell-based, human; conditions: LPS-stimulated human monocytes, read-out: EC50 TNF
[1] = Homo sapiens, Monocyte, TNFα content
[2] = Homo sapiens, Monocyte, TNFα by TR-FRET

Chain of IRAK4 enzyme (Q9NWZ3 whole entry): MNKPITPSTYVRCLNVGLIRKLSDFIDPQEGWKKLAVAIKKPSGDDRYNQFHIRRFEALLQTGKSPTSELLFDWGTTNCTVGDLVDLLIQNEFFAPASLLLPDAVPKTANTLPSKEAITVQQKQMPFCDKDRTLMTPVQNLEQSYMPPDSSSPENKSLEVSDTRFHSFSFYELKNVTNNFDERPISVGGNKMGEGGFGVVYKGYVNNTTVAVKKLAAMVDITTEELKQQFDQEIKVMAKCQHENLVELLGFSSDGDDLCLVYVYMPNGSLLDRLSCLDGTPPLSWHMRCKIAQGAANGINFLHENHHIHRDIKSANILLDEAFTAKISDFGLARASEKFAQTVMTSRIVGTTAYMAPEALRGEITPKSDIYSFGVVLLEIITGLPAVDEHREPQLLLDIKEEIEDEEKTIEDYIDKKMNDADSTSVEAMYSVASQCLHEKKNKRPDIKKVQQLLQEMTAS

Structure (SMILES)	IC50 (IRAK4 enzyme; TR-FRET (HTRF))	EC50 (TNFα; [1])	IC50 (IRAK4 enzyme; TR-FRET)	EC50 (TNFα; TNFα content)	EC50 (TNFα; [2])
CC(C)(O)[C@H](F)CNC(=O)c1cnc(-c2ccc3cc(C#N)cnn23)cc1N[C@H]1C[C@H](CNC(=O)OCC(F)F)C1 [Example 728, 2,2-difluoroethyl (((1R,3r)-3-((2-(3-cyanopyrrolo[1,2-b]pyridazin-7-yl)-5-(((R)-2-fluoro-3-hydroxy-3-methylbutyl)carbamoyl)pyridin-4-yl)amino)cyclo-butyl)methyl)carbamate]	< 1 nM	4 nM	–	–	–
CC(C)(O)[C@H](F)CNC(=O)c1cnc(-c2ccc3cc(C#N)cnn23)cc1N[C@H]1CC[C@H](NS(C)(=O)=O)CC1 [Example 315, 6-(3-cyanopyrrolo[1,2-b]pyridazin-7-yl)-N-((R)-2-fluoro-3-hydroxy-3-methylbutyl)-4-(((1r,4R)-4-(methylsulfonamido)cyclohexyl)amino)nicotinamide]	–	59 nM	< 1 nM	–	–
CC(C)(O)[C@H](F)CNC(=O)c1cnc(-c2ccc3cc(C#N)cnn23)cc1Nc1cnn([C@@H]2CCOC2)c1 [Example 239, 6-(3-cyanopyrrolo[1,2-b]pyridazin-7-yl)-N-((R)-2-fluoro-3-hydroxy-3-methylbutyl)-4-((1-((R)-tetrahydrofuran-3-yl)-1H-pyrazol-4-yl)amino) nicotinamide]	–	24 nM	< 1 nM	–	–
CC(C)(O)[C@H](F)CNC(=O)c1cnc(-c2ccc3cc(C#N)cnn23)cc1N[C@H]1[C@@H]2COC[C@@H]21 [Example 147, 4-(((1R,5S,6r)-3-oxabicyclo[3.1.0]hexan-6-yl)amino)-6-(3-cyano-pyrrolo[1,2-b]pyridazin-7-yl)-N-((R)-2-fluoro-3-hydroxy-3-methylbutyl)nicotinamide]	–	47 nM	< 1 nM	–	–
CC(C)(O)[C@H](F)CNC(=O)c1cnc(-c2ccc3cc(C#N)cnn23)cc1NCc1ccccn1 [Example 171, (R)-6-(3-cyanopyrrolo[1,2-b]pyridazin-7-yl)-N-(2-fluoro-3-hydroxy-3-methylbutyl)-4-((pyridin-2-ylmethyl)amino) nicotinamide]	–	382 nM	6 nM	–	–
CC1(C(=O)N[C@H]2CC[C@H](Nc3cc(-c4ccc5cc(C#N)cnn45)ncc3C(=O)NC[C@@H](F)C(C)(C)O)CC2)CC1 [Example 423, 6-(3-cyanopyrrolo[1,2-b]pyridazin-7-yl)-N-((R)-2-fluoro-3-hydroxy-3-methyl-butyl)-4-(((1r,4R)-4-(1-methylcyclopropane-1-carboxamido)cyclohexyl)amino)nicotinamide]	2 nM	94 nM	–	–	–
COC(=O)NC1(c2ccc(Nc3cc(-c4ccc5cc(C#N)cnn45)ncc3C(=O)NC[C@@H](F)C(C)(C)O)cc2)CC1 [Example 212, (R)-methyl (1-(4-((2-(3-cyanopyrrolo[1,2-b]pyridazin-7-yl)-5-((2-fluoro-3-hydroxy-3-methylbutyl)carbamoyl)pyridin-4-yl)amino)phenyl)cyclopropyl)carbamate]	–	13 nM	< 1 nM	–	–
N#Cc1cnn2c(-c3cc(N[C@H]4CCC[C@@H](O)C4)c(C(=O)NC4C[C@H]4F)cn3)ccc2c1 (stereo partly drawn) [Example 426, 6-(3-cyanopyrrolo[1,2-b]pyridazin-7-yl)-N-((2R)-2-fluorocyclopropyl)-4-(((1S,3R)-3-hydroxycyclo-hexyl)amino)nicotinamide]	5 nM	591 nM	–	–	–
CC(C)(O)[C@H](F)CNC(=O)c1cnc(-c2ccc3cc(C#N)cnn23)cc1N[C@H]1C[C@H](Cn2cncn2)C1 [Example 776, 4-(((1r,3R)-3-((1H-1,2,4-triazol-1-yl)methyl)cyclo-butyl)amino)-6-(3-cyano-pyrrolo[1,2-b]pyridazin-7-yl)-N-((R)-2-fluoro-3-hydroxy-3-methylbutyl) nicotinamide]	1 nM	32 nM	–	–	–
CC(C)Nc1cc(-c2ccc3cc(C#N)cnn23)ncc1C(=O)NCCC1(O)CCC1 [Example 91, 6-(3-cyanopyrrolo[1,2-b]pyridazin-7-yl)-N-(2-(1-hydroxycyclobutyl)ethyl)-4-(isopropylamino) nicotinamide]	–	62 nM	< 1 nM	–	–
Cc1ncc(C2CCC(Nc3cc(-c4ccc5cc(C#N)cnn45)ncc3C(=O)NC[C@@H](F)C(C)(C)O)CC2)o1 (single isomer, unassigned) [Example 646]	< 1 nM	–	–	15 nM	–
CN(C)C(=O)C(F)(F)CNC(=O)c1cnc(-c2ccc3cc(C(N)=O)cnn23)cc1NC12CCC(O)(CC1)CC2 [Example 962, 7-(5-((3-(dimethylamino)-2,2-difluoro-3-oxopropyl)carbamoyl)-4-((4-hydroxybicyclo[2.2.2]octan-1-yl)amino)pyridin-2-yl)pyrrolo[1,2-b]pyridazine-3-carboxamide]	–	–	650 nM	–	> 10000 nM
CC(C)(O)[C@H](F)CNC(=O)c1cnc(-c2ccc3cc(C#N)cnn23)cc1N[C@H]1CCN(C2COC2)C1 [Example 110, 6-(3-cyanopyrrolo[1,2-b]pyridazin-7-yl)-N-((R)-2-fluoro-3-hydroxy-3-methylbutyl)-4-(((S)-1-(oxetan-3-yl)pyrrolidin-3-yl)amino) nicotinamide]	–	191 nM	4 nM	–	–
COC(=O)N1CC(CNc2cc(-c3ccc4cc(C#N)cnn34)ncc2C(=O)NC[C@@H](F)C(C)(C)O)C1 [Example 906, (R)-methyl 3-(((2-(3-cyanopyrrolo[1,2-b]pyridazin-7-yl)-5-((2-fluoro-3-hydroxy-3-methylbutyl)carbamoyl)pyridin-4-yl)amino)methyl) azetidine-1-carboxylate]	–	–	10 nM	–	186 nM
CC(C)(O)[C@H](F)CNC(=O)c1cnc(-c2ccc3cc(C#N)cnn23)cc1Nc1ccc(C(=O)N2CCC2)cc1 [Example 349, (R)-4-((4-(azetidine-1-carbonyl)phenyl)amino)-6-(3-cyanopyrrolo[1,2-b]pyridazin-7-yl)-N-(2-fluoro-3-hydroxy-3-methylbutyl)nicotinamide]	–	77 nM	1 nM	–	–
COC(=O)NC12CC(Nc3cc(-c4ccc5cc(C#N)cnn45)ncc3C(=O)NC[C@@H](F)C(C)(C)O)(C1)C2 [Example 507, (R)-methyl (3-((2-(3-cyanopyrrolo[1,2-b]pyridazin-7-yl)-5-((2-fluoro-3-hydroxy-3-methylbutyl)carbamoyl)pyridin-4-yl)amino)bicyclo[1.1.1]pentan-1-yl)carbamate]	< 1 nM	27 nM	–	–	–
CNC(=O)c1csc(Nc2cc(-c3ccc4cc(C#N)cnn34)ncc2C(=O)NC[C@@H](F)C(C)(C)O)n1 [Example 338, (R)-2-((2-(3-cyanopyrrolo[1,2-b]pyridazin-7-yl)-5-((2-fluoro-3-hydroxy-3-methylbutyl)carbamoyl)pyridin-4-yl)amino)-N-methylthiazole-4-carboxamide]	–	304 nM	3 nM	–	–
CC(C)(O)[C@H](F)CNC(=O)c1cnc(-c2ccc3cc(C#N)cnn23)cc1Nc1nc(-c2ccccc2)cs1 [Example 363, (R)-6-(3-cyanopyrrolo[1,2-b]pyridazin-7-yl)-N-(2-fluoro-3-hydroxy-3-methylbutyl)-4-((4-phenyl-thiazol-2-yl)amino) nicotinamide]	–	328 nM	5 nM	–	–
CCOc1cncc(Nc2cc(-c3ccc4cc(C#N)cnn34)ncc2C(=O)NC[C@@H](F)C(C)(C)O)n1 [Example 845, (R)-6-(3-cyanopyrrolo[1,2-b]pyridazin-7-yl)-4-((6-ethoxypyrazin-2-yl)amino)-N-(2-fluoro-3-hydroxy-3-methylbutyl)nicotinamide]	–	–	< 1 nM	–	> 10000 nM
COCc1cncc(Nc2cc(-c3ccc4cc(C#N)cnn34)ncc2C(=O)NC[C@@H](F)C(C)(C)O)c1 [Example 784, (R)-6-(3-cyanopyrrolo[1,2-b]pyridazin-7-yl)-N-(2-fluoro-3-hydroxy-3-methylbutyl)-4-((5-(methoxymethyl)pyridin-3-yl)amino)nicotinamide]	< 1 nM	40 nM	–	–	–
CC(C)(O)[C@H](F)CNC(=O)c1cnc(-c2ccc3cc(C#N)cnn23)cc1N[C@H]1C[C@H](CNS(C)(=O)=O)C1 [Example 831, 6-(3-cyanopyrrolo[1,2-b]pyridazin-7-yl)-N-((R)-2-fluoro-3-hydroxy-3-methylbutyl)-4-(((1r,3R)-3-(methylsulfonamido-methyl)cyclobutyl)amino)nicotinamide]	–	–	< 1 nM	–	49 nM
CC(=O)NC[C@H]1C[C@H](Nc2cc(-c3ccc4cc(C#N)cnn34)ncc2C(=O)NC[C@@H](F)C(C)(C)O)C1 [Example 544, 4-(((1r,3R)-3-(acetamidomethyl)cyclobutyl)amino)-6-(3-cyanopyrrolo[1,2-b]pyridazin-7-yl)-N-((R)-2-fluoro-3-hydroxy-3-methylbutyl)nicotinamide]	1 nM	81 nM	–	–	–
CC(C)(O)[C@H](F)CNC(=O)c1cnc(-c2ccc3cc(C#N)cnn23)cc1Nc1ccc2cc[nH]c2c1 [Example 578, (R)-4-((1H-indol-6-yl)amino)-6-(3-cyano-pyrrolo[1,2-b]pyridazin-7-yl)-N-(2-fluoro-3-hydroxy-3-methylbutyl) nicotinamide]	2 nM	14 nM	–	–	–
N#Cc1cnn2c(-c3cc(NC45CCC(O)(CC4)CC5)c(C(=O)NCc4ncccn4)cn3)ccc2c1 [Example 933, 6-(3-cyanopyrrolo[1,2-b]pyridazin-7-yl)-4-((4-hydroxybicyclo[2.2.2]octan-1-yl)amino)-N-(pyrimidin-2-ylmethyl)nicotinamide]	–	–	4 nM	–	269 nM
CNC(=O)c1cnc(-c2ccc3cc(C#N)cnn23)cc1NC12CCC(O)(CC1)CC2 [Example 361, 6-(3-cyanopyrrolo[1,2-b]pyridazin-7-yl)-4-((4-hydroxybicyclo[2.2.2]octan-1-yl)amino)-N-methylnicotinamide]	–	50 nM	1 nM	–	–
CC(C)(O)[C@H](F)CNC(=O)c1cnc(-c2ccc3cc(C#N)cnn23)cc1NC1CCS(=O)(=O)C1 (stereo partly drawn) [Example 76, 6-(3-cyanopyrrolo[1,2-b]pyridazin-7-yl)-4-((1,1-dioxidotetrahydrothiophen-3-yl)amino)-N-((R)-2-fluoro-3-hydroxy-3-methylbutyl)nicotinamide]	–	348 nM	1 nM	–	–
